# Experiments:
# [1] = test system: leukocytes in ischemic tissue; surviving animals; conditions: intramuscular injections, p>0.05
# [2] = test system: lymphocytes, macrophages and fibroblasts; conditions: 24-hour in vitro, 0.01 to 0.8 mmols/liter
# Procedure: The cells used as subject matter included lymphocytes, macrophages and fibroblasts. Viability following a 24-hour in vitro exposure with 5-aminophthaloylhydrazide in concentrations of 0.01 to 0.8 mmols/liter was determined by means of protein incorporation and/or synthesis.
# guinea pigs = test system: guinea pigs
# Source text: The allergenic activity of the drug was examined in guinea pigs.
# [3] = test system: S. typhi TA 100, TA 102, and TA 97; assay: Mutagenicity, Ames' bacterial testing method; conditions: 0.01 and 2 mg/ml; rat liver microsomes
# Procedure: Mutagenicity was measured by means of Ames' bacterial testing method. The tests were performed with strains of S. typhi TA 100, TA 102, and TA 97. The microsome activator method was used whereby rat liver was induced with methylcolanthrene.
# [4] = test system: skin transplant rejection in chinchillas; conditions: intravenous, p<0.01
# Procedure: The experiments involved 30 chinchillas from which a strip of skin was removed measuring 2×2 cm. The resulting lesion was covered by an outside transplant. The animals were divided into three groups.
# The first group was treated with traditional therapy (prednisolone and cyclosporine); the second group was given 5aminophthaloylhydrazide daily in a dose of 150 mg/kg; the third group received a combined treatment.
# To assess the efficacy of the drug, the period before the rejection was measured and morphological studies were conducted.
# animal organisms = assay: Pharmacological studies, general toxicity statement; conditions: in vivo
smiles,measurement,setting,value
"Nc1cccc2c(=O)[nH][nH]c(=O)c12 [5-aminophthaloylhydrazide, 5-amino-2,3-dihydrophthalazine-1,2 dione]",percentage of surviving animals,[1],60%
same,toxicity (viability by protein incorporation and/or synthesis),[2],No toxicity was observed for any of the dosage levels tested
same,local irritation,guinea pigs; 20 to 100 mg,no symptoms of local irritation
same,erythema at the site of administration,guinea pigs; even large doses,No erythema was observed at the site of administration
same,signs of allergy,guinea pigs; subcutaneously or orally,No signs of allergy were observed
same,inhibitory or mutagenic activity,[3],does not posses inhibitory or mutagenic activity
same,rejection process vs traditional therapy,[4],slowed the rejection process down considerably
same,toxicity in animal organisms,animal organisms,absence of toxicity
same,clinical picture of psoriasis,psoriasis patients; 12 to 20 mg/kg daily,"the itching disappeared, the temperature went down and the surface area of the affected zone shrunk"
same,epithelization of the pustules,psoriasis patients; drug plus topical 4% solution in 10% DMSO,epithelization of the pustules occurred

# From patent US5512573A, “Use of phthaloylhydrazide derivatives as anti-hypoxic and defensive agents” (priority 1993, dated 1996)
